Laboratory results published in ChEMBL document CHEMBL2203120, “Contribution to investigation of antimicrobial activity of styrylquinolines” (Bioorg Med Chem, 2012).
≈ marks a conversion by molar mass, not a printed value.

Columns and labels:
[1] = test system: Staphylococcus epidermidis; assay: Antimicrobial activity against Staphylococcus epidermidis H 6966/08 after 48 hrs by broth microdilution method; assay type: functional; settings: H 6966/08, 48 h
[2] = test system: Lichtheimia corymbifera; assay: Antimicrobial activity against Absidia corymbifera 272 after 24 hrs by broth microdilution test; assay type: functional; settings: Lichtheimia corymbifera, 272, 24 h
[3] = test system: Candida albicans; assay: Antimicrobial activity against Candida albicans ATCC 44859 after 24 hrs by broth microdilution test; assay type: functional; settings: ATCC 44859, 24 h
[4] = test system: Trichophyton mentagrophytes; assay: Antimicrobial activity against Trichophyton mentagrophytes 445 after 72 hrs by broth microdilution test; assay type: functional; settings: Trichophyton mentagrophytes, 445, 72 h
[5] = test system: Trichosporon beigelii; assay: Antimicrobial activity against Trichosporon beigelii 1188 after 48 hrs by broth microdilution test; assay type: functional; settings: Trichosporon beigelii, 1188, 48 h
[6] = test system: Pichia kudriavzevii; assay: Antimicrobial activity against Candida krusei ATCC 6258 after 24 hrs by broth microdilution test; assay type: functional; settings: ATCC 6258, 24 h
[7] = test system: Staphylococcus aureus; assay: Antimicrobial activity against Staphylococcus aureus CCM 4516/08 after 48 hrs by broth microdilution method; assay type: functional; settings: CCM 4516/08, 48 h
[8] = test system: Staphylococcus aureus; assay: Antimicrobial activity against methicillin-resistant Staphylococcus aureus H 5996/08 after 24 hrs by broth microdilution method; assay type: functional; settings: H 5996/08, 24 h
[9] = test system: Trichophyton mentagrophytes; assay: Antimicrobial activity against Trichophyton mentagrophytes 445 after 120 hrs by broth microdilution test; assay type: functional; settings: Trichophyton mentagrophytes, 445, 120 h
[10] = test system: Trichosporon beigelii; assay: Antimicrobial activity against Trichosporon beigelii 1188 after 24 hrs by broth microdilution test; assay type: functional; settings: Trichosporon beigelii, 1188, 24 h
[11] = test system: Staphylococcus aureus; assay: Antimicrobial activity against methicillin-resistant Staphylococcus aureus H 5996/08 after 48 hrs by broth microdilution method; assay type: functional; settings: H 5996/08, 48 h
[12] = test system: Staphylococcus aureus; assay: Antimicrobial activity against Staphylococcus aureus CCM 4516/08 after 24 hrs by broth microdilution method; assay type: functional; settings: CCM 4516/08, 24 h
[13] = test system: Staphylococcus epidermidis; assay: Antimicrobial activity against Staphylococcus epidermidis H 6966/08 after 24 hrs by broth microdilution method; assay type: functional; settings: H 6966/08, 24 h
[14] = test system: Pichia kudriavzevii; assay: Antimicrobial activity against Candida krusei ATCC 6258 after 48 hrs by broth microdilution test; assay type: functional; settings: ATCC 6258, 48 h
[15] = Lipophilicity, log P of compound by RP-HPLC analysis; assay type: physicochemical
[16] = test system: Aspergillus fumigatus; assay: Antimicrobial activity against Aspergillus fumigatus 231 after 48 hrs by broth microdilution test; assay type: functional; settings: Aspergillus fumigatus, 231, 48 h
[17] = test system: Lichtheimia corymbifera; assay: Antimicrobial activity against Absidia corymbifera 272 after 48 hrs by broth microdilution test; assay type: functional; settings: Lichtheimia corymbifera, 272, 48 h
[18] = test system: Nakaseomyces glabratus; assay: Antimicrobial activity against Candida glabrata 20/I after 48 hrs by broth microdilution test; assay type: functional
[19] = test system: Candida tropicalis; assay: Antimicrobial activity against Candida tropicalis 156 after 24 hrs by broth microdilution test; assay type: functional; settings: Candida tropicalis, 156, 24 h
[20] = test system: Aspergillus fumigatus; assay: Antimicrobial activity against Aspergillus fumigatus 231 after 24 hrs by broth microdilution test; assay type: functional; settings: Aspergillus fumigatus, 231, 24 h
[21] = test system: Nakaseomyces glabratus; assay: Antimicrobial activity against Candida glabrata 20/I after 24 hrs by broth microdilution test; assay type: functional
[22] = test system: Candida albicans; assay: Antimicrobial activity against Candida albicans ATCC 44859 after 48 hrs by broth microdilution test; assay type: functional; settings: ATCC 44859, 48 h
[23] = test system: Candida tropicalis; assay: Antimicrobial activity against Candida tropicalis 156 after 48 hrs by broth microdilution test; assay type: functional; settings: Candida tropicalis, 156, 48 h

Structure (SMILES) | MIC90 [1] | MIC50 [2] | MIC80 [3] | MIC50 [4] | MIC80 [5] | MIC80 [6] | MIC90 [7] | MIC90 [8] | MIC50 [9] | MIC80 [10] | MIC90 [11] | MIC90 [12] | MIC90 [13] | MIC80 [14] | logP [15] | MIC50 [16] | MIC50 [17] | MIC80 [18] | MIC80 [19] | MIC50 [20] | other results
Oc1ccccc1/C=C/c1ccc2cccc(O)c2n1 | 125 µM (≈ 32.9 µg/mL) | 62.5 µM (≈ 16.5 µg/mL) | 31.2 µM (≈ 8.23 µg/mL) | 31.2 µM (≈ 8.23 µg/mL) | 62.5 µM (≈ 16.5 µg/mL) | 31.2 µM (≈ 8.23 µg/mL) | 62.5 µM (≈ 16.5 µg/mL) | 62.5 µM (≈ 16.5 µg/mL) | 62.5 µM (≈ 16.5 µg/mL) | 31.2 µM (≈ 8.23 µg/mL) | 125 µM (≈ 32.9 µg/mL) | 62.5 µM (≈ 16.5 µg/mL) | 62.5 µM (≈ 16.5 µg/mL) | 62.5 µM (≈ 16.5 µg/mL) | 3.95 | > 500 µM | > 500 µM | 31.2 µM (≈ 8.23 µg/mL) | 125 µM (≈ 32.9 µg/mL) | 500 µM (≈ 132 µg/mL) | MIC80 [21]: 31.2 µM (≈ 8.23 µg/mL); MIC80 [22]: 62.5 µM (≈ 16.5 µg/mL); MIC80 [23]: 500 µM (≈ 132 µg/mL)
Oc1cccc(/C=C/c2ccc3cccc(O)c3n2)c1 | 500 µM (≈ 132 µg/mL) | > 125 µM | > 125 µM | > 125 µM | > 125 µM | > 125 µM | 125 µM (≈ 32.9 µg/mL) | 125 µM (≈ 32.9 µg/mL) | > 125 µM | > 125 µM | 125 µM (≈ 32.9 µg/mL) | 125 µM (≈ 32.9 µg/mL) | 250 µM (≈ 65.8 µg/mL) | > 125 µM | 3.95 | > 125 µM | > 125 µM | > 125 µM | > 125 µM | > 125 µM | MIC80 [21]: > 125 µM; MIC80 [22]: > 125 µM; MIC80 [23]: > 125 µM
